Data as given in patent US5608095A, “Alkyl-4-silyl-phenols and esters thereof as antiatherosclerotic agents” (Hoechst Marion Roussel, Inc., priority 1996, dated 1997).
Like-named read-outs stand apart in the source and are kept apart here.

Tests used:
[1] = HPLC quantitation of compound and metabolite concentration in rat serum and liver; type: in vivo, male Sprague-Dawley rats; details: po, diet 0.3%, 4 days
Source text: (§1) A typical experiment consisted of 4-6 groups of rats (N=5 per group) with 1 group being a control which received no MDL compound and the other groups being treated with 0.3% MDL compound. Some of the compounds were either repeated at 0.3% or evaluated again at the lower dose of 0.1%. Male Sprague-Dawley rats, 50-100 g, (Harlan Laboratories, Indianapolis, Ind.) were housed in groups of 5, fed ad libitum water and Purina Rodent chow (#5002) with or without MDL compound as a dietary admixture for 4 days. Dietary admixtures (0.3%) were made by mixing 1.2 grams of an MDL compound with 400 grams of Purina rodent chow (#5002). The MDL compound was mixed with approximately 50 grams of food using a mortar and pestle. This was added to the remainder of the food and mixed for 3 hours on a rotary mixer. In the morning of day 5, non-fasted rats were anesthetized with carbon dioxide, and blood was collected by cardiac puncture. Rats were sacrificed by cervical dislocation. Body weights and liver weights were recorded in grams. Food consumption was recorded as grams.cndot.day^-1.cndot.rat^-1. Deaths were recorded as mortality. Aliquots of fresh serum were used for clinical chemistries, thiobarbituric acid reactive substances (TBARS) and conjugated diene measurements. Aliquots of serum (~0.5mL) and whole livers were frozen at -20° C. for compound and metabolite concentration determination at a later time.
(§2) Serum and liver concentrations of parent compound and the metabolites, bisphenol and diphenoquinone, were determined by reverse phase HPLC using a Waters 990 Powerline system. Livers (1 gram samples) were homogenized with 5.0 mL PBS, pH 7.4, using a Polytron tissue homogenizer at setting 5 for 20-30 seconds. Serum or liver homogenates were extracted as follows: 100μL of either serum or homogenate were added to 2.0 mL diethyl ether:ethanol (3:1) while vortexing the tube. The sample tubes were capped and centrifuged for 10 min at 5° C. at 3500 rpm in a Beckman GPKR centrifuge with a GH 3.7 rotor. The supernatants were transferred to clean tubes and dried under N2. Samples were reconstituted with 200 μL of acetonitrile:hexane:0.1M ammonium acetate (90:6.5:3.5, by vol.). Then, 100 μL were injected onto a Waters Deltapak C18-300 Å column, and eluted with an 83% acetonitrile:17% water mobile phase at a flow rate of 1.5 mL/min. Absorbances at the wavelengths of 240, 254, and 420 nm were recorded. Compound concentrations were calculated from known quantities of authentic parent compounds after correction for recovery; the range of recovery from spiked samples was 40 to 100%. The lowest detectable limit for this class of compounds was ~0.5 μg/mL. Concentrations were calculated as μg/mL. Concentrations were calculated as μg/mL of serum and μg/g of liver.

[2] = system: oxidation of serum lipids; test: TBARS assay, rat serum; type: in vivo, male Sprague-Dawley rats; details: po, 96 h, read-out: TBARS, percent of control
Source text: as §1
In this assay the oxidation of serum lipids is initiated with CuSO4, resulting in the formation of aldehydes, such as malondialdehyde (MDA). Upon incubation with thiobarbituric acid, the absorbance of the aldehydes can be detected at 530-540 nm. As stated in the previous example, TBARS values which are lower than control serum values indicate the relative ability of a test compound to inhibit the oxidation of lipids in a sample. TBARS were measured as follows: 100 μL of serum were mixed with 400 μL of a 5 mmol CuSO4 solution and incubated at 37° C. for 3 hr. The reactions were stopped by addition of 1.0 mL of 20% trichloroacetic acid. Then 1.0 mL of 0.67% thiobarbituric acid in 0.05N sodium hydroxide was added, mixed, and the samples incubated for 30 min at 90° C. Samples were centrifuged briefly to pellet undissolved material, and the supernatants were transferred to a 96-well microtiter plate. Absorbances were measured at 540 nm using a Biotek model EL311 microplate reader. The nmoles of MDA produced were calculated from a standard curve of 0 to 10 nmoles of MDA prepared from malonaldehyde bis(dimethylacetal). Serum samples from treated rats were compared to serum samples from control rats that received no MDL compound.

[3] = Clinical chemistries in serum of rats; type: in vivo, male Sprague-Dawley rats; details: for response vs control in vivo at 0.3 %: po, 96 h
Source text: as §1
Blood was allowed to clot at room temperature for 30 minutes. Serum was obtained after centrifugation for 10 min at 4° C. at 3000 rpm in a Beckman J-6M/E centrifuge with a JS-4.2 rotor. Fresh serum was analyzed by a COBAS MIRA S autoanalyzer (Roche Diagnostics) using Roche diagnostic reagents for the following clinical chemistry measurements: alkaline phosphatase (ALP, kit #44553), alanine transaminase (ALT, kit #42375), aspartate aminotransferase (AST, kit #42381), total cholesterol (CHOL, kit #44334), triglyceride (TG, kit #44120), and glucose (GLU, kit #44558). ALP, ALT, and AST were calculated as units/L. Cholesterol, triglycerides, and glucose were calculated as mg/dL.

[4] = Animal parameters (food, body weight, liver weight, mortality) in rats; type: in vivo, male Sprague-Dawley rats; details: diet 0.3%, 4 days; for mortality at 96 h: in vivo, po, read-out: mortality (deaths per group); for mortality at 96 h / body wt., percent of control / lw/bw (liver weight/body weight), percent of control: rat
Source text: as §1

[5] = system: serum cholesterol, LDL, HDL, triglycerides; test: Serum lipids and lipoprotein cholesterol in cholesterol-fed female New Zealand White rabbits; type: in vivo; details: Oryctolagus cuniculus, po, 168 h, rabbit serum, diet 0.4%, 7 days
Procedure: (§3) Five independent experiments were performed in the following manner. […] Female New Zealand White rabbits (Hazelton, ~2.0-2.3 kg) were fed 0.2% cholesterol enriched rabbit chow (Purina #5322) with or without 0.4% MDL compound (except, MDL 108,804 at 0.26% and MDL 103,491 repeated at 0.6%). The MDL compounds were solubilized in 100% ethanol. MDL 108,208 was not soluble in 100% ethanol, but it was soluble in diethyl ether:ethanol (3:2 by volume). The chow was sprayed with the MDL mixtures and allowed to dry overnight in a chemical fume hood. Control chow was sprayed with ethanol. Rabbits were fed 100 grams food per day for 7 days (0.6% MDL 103,491 were fed for 14 days); water was available ad libitum. On day 7, rabbits (fasted overnight) were bled (~2 mL) from marginal ear vein; 0.6% MDL 103,491 treated rabbits were tested on day 14. They were euthanized by carbon dioxide overdose. The total body and liver weights were recorded in grams. Food consumption was recorded as grams.cndot.day^-1 .cndot.rabbit^-1. Aliquots of fresh serum were used for clinical chemistries, lipoprotein cholesterol determination, thiobarbituric acid reactive substances (TBARS) and compound and metabolite concentrations in serum. Livers (~5 gram aliquots) were frozen at -20° C. for compound and metabolite concentration determination at a later time.
Blood was allowed to clot at room temperature for 30 minutes. Serum was obtained after centrifugation for 10 min at 5° C. at 3000 rpm in a Beckman GPKR centrifuge with a GH rotor. Fresh serum was analyzed by a COBAS MIRA autoanalyzer (Roche Diagnostics) using Roche diagnostic reagents for total cholesterol (CHOL, kit #44334) and triglyceride (TG, kit #44120). Cholesterol and triglycerides were calculated as mg/dL.
Lipoprotein fractions (very low density lipoprotein, VLDL, low density lipoprotein, LDL and high density lipoprotein, HDL) were separated on a Sepharose 6HR column (1×30 cm, Pharmacia) attached to a Waters Powerline HPLC system. Fifty μL of serum were injected onto the column and eluted with phosphate buffered saline, pH 7.4, at a flow rate of 0.5 mL/min. Cholesterol reagent (Roche Diagnostics, kit #44334, diluted with 20 mL water and then with 20 mL of 0.9% saline) was added at 0.2 mL/min to the post column eluant and incubated in a knitted PFTE Kratos reaction coil (Applied Biosystems) at 37° C. for 5 min. Absorbance was measured at 500 nm. The lipoprotein subfractions were quantitated as follows: [formula]

[6] = Food consumption, body and liver weight in cholesterol-fed rabbits; type: in vivo, female New Zealand White rabbits; details: diet 0.4%, 7 days
Procedure: as §3

[7] = system: oxidation of serum lipids; test: TBARS assay, serum of cholesterol-fed rabbits; type: in vivo, female New Zealand White rabbits; details: Oryctolagus cuniculus, po, 168 h; rabbit serum, diet 0.4%, 7 days; read-out: TBARS, percent of control
Procedure: as §3
TBARS are a qualitative indication of the oxidation of lipids in a sample. In this assay the oxidation of serum lipids is initiated with CuSO4, resulting in the formation of aldehydes, such as malondialdehyde (MDA). Upon incubation with thiobarbituric acid, the absorbance of the aldehydes can be detected at 530-540 nm. TBARS values which are lower than control serum values indicate the relative ability of a compound to inhibit the oxidation. TBARS were measured as follows: 50 μL of serum were mixed with 50 μL of 0.9% saline and 400 μL of a 5 mM CuSO4 solution and incubated at 37° C. for 5 hr. The reactions were stopped by addition of 1.0 mL of 20% trichloroacetic acid. Then 1.0 mL of 0.67% thiobarbituric acid in 0.05N sodium hydroxide was added, mixed, and the samples incubated for 30 min at 90° C. Samples were centrifuged briefly to pellet undissolved material, and the supernatants were transferred to a 96-well microtiter plate. Absorbances were measured at 540 nm using a Biotek model EL311 microplate reader. The nmoles of MDA produced were calculated from a standard curve of 0 to 10 nmoles of MDA prepared from malonaldehyde bis(dimethylacetal). Serum samples from treated rabbits were compared to serum samples from control rabbits that received no MDL compound.

[8] = HPLC quantitation of compound and metabolite concentration in rabbit serum and liver; type: in vivo, female New Zealand White rabbits; details: diet 0.4%, 7 days
Procedure: as §3
as §2, with “of parent compounds and the” for “of parent compound and the”, “Livers (1 gram) were homogenized” for “Livers (1 gram samples) were homogenized”, “as follows: 100 μL of either” for “as follows: 100μL of either”, “1.5 mL/min. Absrobances at the” for “1.5 mL/min. Absorbances at the”, “calculated as μg/mL of” for “calculated as μg/mL. Concentrations were calculated as μg/mL of”

[9] = rat liver, read-out: Liver Parent = parent compound concentration
[10] = rat serum, read-out: Serum Parent = parent compound concentration
[11] = Rattus norvegicus, read-out: CHOL (total cholesterol), percent of control

Compound | concentration at 96 h [1, 9] | concentration at 96 h [1, 10] | response vs control in vivo at 0.3 % [3, 11] | ALP (alkaline phosphatase), percent of control ([3]; rat serum, diet 0.3%, 4 days) | ALT (alanine aminotransferase), percent of control ([3]; rat serum, diet 0.3%, 4 days) | AST (aspartate aminotransferase), percent of control ([3]; rat serum, diet 0.3%, 4 days) | GLUC (glucose), percent of control ([3]; rat serum, diet 0.3%, 4 days) | food (grams eaten per day per rat), percent of control [4] | mortality at 96 h [4] | body wt., percent of control [4] | lw/bw (liver weight/body weight), percent of control [4] | also measured
CC(C)(C)c1cc(SC[Si](C)(C)c2ccccc2)ccc1O [MDL 104,571, 2-t-Butyl-4-[(dimethylphenylsilyl)methylthio]phenol] | 500 ng/g | 1200 ng/mL | 108% | 103% | 109% | 103% | 96% | 108% | 0% | 97% | 123% | response vs control in vivo at 0.3 % ([2]; rat serum, diet 0.3%, 4 days): 58%; response vs control in vivo at 0.3 % ([3]; rat serum, diet 0.3%, 4 days, read-out: TRIG (triglycerides), percent of control): 119%
CC(C)(C)c1cc(OC[Si](C)(C)c2cccc(C(F)(F)F)c2)cc(C(C)(C)C)c1O [MDL 105,726, 2,6-Di-t-butyl-4-[(dimethyl-3-trifluoromethylphenylsilyl)methyloxy]phenol] | 128000 ng/g | 17000 ng/mL | 104% | 118% | 113% | 112% | 105% | 112% | 0% | 105% | 120% | response vs control in vivo at 0.3 % ([2]; Rattus norvegicus): 48%; response vs control in vivo at 0.3 % ([3]; Rattus norvegicus, read-out: TRIG (triglycerides), percent of control): 75%
CC(C)(C)c1cc(OC[Si](C)(c2ccccc2)c2ccccc2)ccc1O [MDL 107,917, 2-t-butyl-4-[(diphenylmethylsilyl)methyloxy]phenol] | – | – | – | – | – | – | – | – | – | – | – | response vs control in vivo at 0.4 % ([5]; read-out: HDL cholesterol, percent of control): 86%; response vs control in vivo at 0.4 % ([5]; read-out: LDL cholesterol, percent of control): 165%; response vs control in vivo at 0.4 % ([5]; read-out: TRIG (triglycerides), percent of control): 129%; response vs control in vivo at 0.4 % ([5]; read-out: chol tot. (total cholesterol), percent of control): 151%; food (grams eaten per day per rabbit), percent of control [6]: 100%; body wt., percent of control ([6]; rabbit): 99%; lw/bw (liver weight/body weight), percent of control ([6]; rabbit): 106%; response vs control in vivo at 0.4 % [7]: 68%; Liver Parent = parent compound concentration ([8]; rabbit liver): 0 µg/g; Serum Parent = parent compound concentration ([8]; rabbit serum): 0 µg/mL
